{
  "source": "paper PMC6717735",
  "about": "“Therapeutic Effect of pHLIP-mediated CEACAM6 Gene Silencing in Lung Adenocarcinoma” (Scientific Reports, 2019)",
  "key": {"A549 tumours [1]": {"tested_on": "A549 tumours", "assay": "A549 xenograft tumour growth", "type": "in vivo, BALB/c nude mice", "details": "compared with vehicle-treated mice; for reduction in tumour growth: n = 5", "experimental": "We first assessed the knockdown efficacy of delivered […]6 in vivo. For in vivo analysis, BALB/c nude mice were subcutaneously injected with 1.2 × 10^7 A549 cells. Two weeks after tumour initiation, […]6 was injected into the mice via the tail vein with saline used as a negative control. To determine the optimal amount of […]6 for injection, two groups of mice (n = 5 mice/group) were injected with different doses (2 mg/kg and 4 mg/kg) twice per week for 3 weeks. Because cisplatin is the backbone of lung cancer treatment, cisplatin-treated mice served as the positive control. […] After 3 weeks of treatment, all mice were sacrificed. Next, we assessed the antitumour effects of concurrent chemotherapy and CEACAM6 targeting. […] According to the in vivo results, a dose of 2 mg/kg […]6 was selected for combination treatment. […] Tumour volume was measured every 2-3 days. […] None of the mice included in the therapeutic experiments experienced overt body weight loss or organ damage over the treatment period (Supplementary Fig. 5a,b). All animal work was performed in accordance with a protocol approved by the Institutional Animal Care and Use Committee of the Korea Research Institute of Bioscience and Biotechnology. A549 cells were subcutaneously injected into the right flanks of 5-week-old BALB/c athymic nude mice (n = 5 mice/group; 1.2 × 10^7 cells/mouse). Tumour growth was determined by measuring the length (L), width (W), and height (H) with callipers and using the formula V = (L × W × H) × 0.5."}, "A549 tumours [2]": {"tested_on": "A549 tumours", "assay": "Ki-67 immunostaining of xenograft tumours (proliferation)", "type": "in vivo, BALB/c nude mice", "details": "n = 5 tumours/group", "experimental": "Mice were killed by carbon dioxide asphyxiation. Staining was performed in formalin-fixed, paraffin-embedded tumour sections (4-μm thickness). Fully automated immunostaining was achieved using a BenchMark XT autostainer (Ventana Medical Systems Inc., Tucson, AZ, USA). The following antibodies were used: monoclonal mouse anti-human CEACAM6 (9A6, 1:4,000; Santa Cruz Biotechnology Inc.), anti-CC3 (1:100, BioCare Medical, Pacheco, CA, USA), and anti-Ki-67 (1:100, VP-K452; Vector Laboratory, Burlington, Canada). The number of positive cells per tumour area was quantified."}},
  "data": [
    {"compound": "N.N.[Cl][Pt][Cl]", "note": "[cisplatin]", "values": [
      {"measurement": "reduction in tumour growth", "setting": "A549 tumours [1]; 2 mg/kg intraperitoneally 3 times/week for 3 weeks", "result": 46.7, "unit": "%"},
      {"measurement": "reduction in tumour growth", "setting": "A549 tumours [1]; 2 mg/kg intraperitoneally twice/week for 3 weeks", "result": 35.0, "unit": "%"},
      {"measurement": "reduction in tumour volume", "setting": "A549 tumours [1]; combination study: pHLIP-siCEACAM6 2 mg/kg via tail vein, cisplatin intraperitoneally, twice per week for 3 weeks, n = 5 mice/group", "result": 29.9, "unit": "%"},
      {"measurement": "cell proliferation in tumours (Ki-67 staining)", "setting": "A549 tumours [2]; combination study, after 3 weeks of systemic therapy", "result": 18.4, "unit": "%"},
      {"measurement": "proliferation level (Ki-67 staining)", "setting": "A549 tumours [2]; single-agent study, tumours harvested after 3 weeks", "result": 11.2, "unit": "%"}
    ]}
  ]
}
